Laboratory results reported in publication PMC9785280, “Synthesis, Antiproliferative Evaluation and QSAR Analysis of Novel Halogen- and Amidino-Substituted Benzothiazoles and Benzimidazoles” (International Journal of Molecular Sciences, 2022).

What was measured:
[1] = test system: HuT78 (T-cell lymphoma) cells; assay: MTT antiproliferative assay, HuT78; type: cell-based, human; conditions: for IC50: Homo sapiens, HuT78, 72 h, 72 h, MTT, mean ± SD of three independent experiments; for SI (BJ) HuT78: SI = IC50 BJ / IC50 HuT78; for SI (MDCK) HuT78: SI = IC50 MDCK1 / IC50 HuT78
Procedure: (§1) The growth inhibition activity was assessed according to the slightly modified procedure performed at the National Cancer Institute, Developmental Therapeutics Program.
(§2) Examined compounds were dissolved in DMSO (1 × 10^−2 M). The experiments were carried out on seven human tumor cell lines and two normal cell lines. The following cell lines were used: HeLa (human cervical adenocarcinoma; purchased from ATCC), CaCo-2 (human colorectal adenocarcinoma), HuT78 (T-cell lymphoma), THP-1 (acute monocytic leukemia), SW620 (colorectal adenocarcinoma, metastatic), MDA-MB-231 (human breast adenocarcinoma), HL60 (promyelocytic leukemia cell line), foreskin fibroblast cells (BJ) and MDCK1 (Madine–Darby canine kidney fibroblast like cells). MDCK1 cells were used between 24 and 26 passages.
(§3) Adherent cells were cultured in the Dulbecco’s modified Eagle medium—DMEM (Gibco, EU) supplemented with 10 % heat-inactivated fetal bovine serum (FBS, Gibco, EU), 2 mM glutamine, and 100 U/0.1 mg penicillin/streptomycin. Cells on suspension were cultured in RPMI 1640 (Gibco, EU) medium supplemented with 10 % FBS (Gibco, EU), 2 mM glutamine, 1 mM sodium pyruvate, 10 mM HEPES. Cells were grown in humidified atmosphere under the conditions of 37 °C/5% of CO2 gas in the CO2 incubator (IGO 150 CELLlife^TM, JOUAN, Thermo Fisher Scientific, Waltham, MA, USA). A erythrosin B (Sigma-Aldrich, St. Louis, MO, USA) dye exclusion method was used to assess cell viability before plating.
(§4) Adherent cells (HeLa, CaCo-2, MCF-7 and MDCK-1) were plated in 96-well flat bottom plates (Greiner, Frickenhausen, Austria) at a concentration of 2 × 10^4 cells/mL. Suspension cells (THP-1 and HuT78) were plated in 96-well microtiter plates (Sarstead, Newton, USA) at a concentration of 1 × 10^5 cells/mL. Twenty-four hours later, cells were treated with test agents in […] 10-fold dilutions ([…] to 10^−4 M) and incubated for further 72 h. Working dilutions were freshly prepared on the day of testing. The solvent was also tested for eventual inhibitory activity by adjusting its concentration to be the same as in working concentrations. After 72 h of incubation, the cell growth rate was evaluated by performing the MTT assay, which detects dehydrogenase activity in viable cells. For this purpose, upon completion of the incubation period, growth medium was discarded and 50 μL of MTT was added to each well at a concentration of 5 mg/mL. After four hours of incubation at 37 °C, water insoluble MTT-formazan crystals were dissolved in 150 μL of dimethyl-sulfoxide (DMSO) for adherent cells, and in 10 % SDS with 0.01 M/L HCl for cells grown in suspension. The absorbance (OD, optical density) was measured on a microplate reader (iMark, BIO RAD, Hercules, CA, USA) at 595 nm.
(§5) Percent of life cells was calculated as follows: % = OD (sample)–OD (background)/OD (control)–OD (background) × 100.
(§6) Optical density (OD) of background for adherent cells is the OD of MTT solution and DMSO; OD (background) for suspension cells is OD of the culture medium with MTT and 10% SDS with 0.01 M/L HCl; OD (control) is the OD of the cells growth without tested compounds.
(§7) Calculation of GI50 value curves and QC analysis is performed by using the Excel tools and GraphPadPrism software (La Jolla, CA), v. 5.03. Briefly, individual concentration effect curves are generated by plotting the logarithm of the concentration of tested compounds(X) vs. corresponding percent inhibition values (Y) using least squares fit. The best fit GI50 values are calculated using Log (inhibitor) versus normalized response—Variable slope equation, where Y Ľ 100/(1 ţ 10 ((LogIC50 _ X) * HillSlope)). QC criteria parameters (Z0, S:B, R2, HillSlope) were checked for every GI50 curve.

[2] = test system: MDCK1 (Madin–Darby canine kidney) cells; assay: MTT antiproliferative assay, non-tumor MDCK1 cells; type: cell-based; conditions: Canis lupus familiaris, MDCK1, 72 h, mean ± SD of three independent experiments, normal cells
Procedure: as §1, §2, §3, §4, §5, §6, §7

human fibroblasts (BJ) = assay: MTT antiproliferative assay, normal BJ fibroblasts; type: cell-based; conditions: Homo sapiens, Fibroblast, 72 h, MTT, mean ± SD of three independent experiments; normal cells
Procedure: as §1, §2, §3, §4, §5, §6, §7

[3] = test system: CaCo-2 (colon adenocarcinoma) cells; assay: MTT antiproliferative assay, CaCo-2; type: cell-based, human; conditions: for IC50: Homo sapiens, Caco-2, 72 h, MTT, mean ± SD of three independent experiments
Procedure: as §1, §2, §3, §4, §5, §6
as §7, with “The best fit GI50 values are calculated using Log (inhibitor) versus normalized response—Variable slope equation, where Y Ľ 100/(1 ţ 10 ((LogIC50 _ X) * HillSlope)).” left out

[4] = test system: HeLa (cervical adenocarcinoma) cells; assay: MTT antiproliferative assay, HeLa; type: cell-based; conditions: Homo sapiens, 72 h, mean ± SD of three independent experiments
Procedure: as §1, §2, §3, §4, §5, §6, §7

Structure (SMILES)	melting point	IC50 [1]	IC50 [2]	IC50 (human fibroblasts (BJ))	IC50 [3]	IC50 [4]	SI (BJ) HuT78 [1]	SI (MDCK) HuT78 [1]	antiproliferative effect on HuT78 cells (in words) [1]	SI (MDCK) CaCo-2 ([3]; SI = IC50 MDCK1 / IC50 CaCo-2)
O=C(COc1ccc(-c2nc3ccc(Cl)cc3s2)cc1)c1ccccc1 [15a, 6-Chloro-2-(4-(2-oxo-2-phenylethoxy)phenyl)benzothiazole]	192 to 195 °C	> 100 µM	> 100 µM	> 100 µM	> 100 µM	> 100 µM				
Fc1ccc2nc(-c3ccc(OCc4cn(Cc5ccccc5)nn4)cc3)sc2c1 [25a, 6-Fluoro-2-(4-((1-benzyl-1H-1,2,3-triazol-4-yl)methoxy)phenyl)benzothiazole]	176 to 180 °C	> 100 µM	8.2 ± 5.8 µM	10 ± 0.01 µM	> 100 µM	> 100 µM				
COc1cc(-c2nc3ccccc3s2)ccc1OCc1cn(Cc2ccccc2)nn1 [26c, 2-(3-Methoxy-4-((1-benzyl-1H-1,2,3-triazol-4-yl)methoxy)phenyl)benzothiazole]	170 to 173 °C	23.7 ± 5.2 µM	8.5 ± 6.4 µM	76.7 ± 27.7 µM	> 100 µM	23.3 ± 15.3 µM	3.24			
Fc1ccc2nc(-c3ccc(OCc4c[nH]nn4)cc3)sc2c1 [22a, 6-Fluoro-2-(4-((1H-1,2,3-triazol-4-yl)methoxy)phenyl)benzothiazole]	212 to 215 °C	14.9 ± 10.8 µM	1.1 ± 0.2 µM	> 100 µM	73.5 ± 4.5 µM	54.5 ± 29.4 µM	6.71			
Fc1cc(-c2nc3ccc(C4=NCCN4)cc3[nH]2)ccc1OCCN1CCOCC1 [48b]		> 100 µM	> 100 µM	> 100 µM	> 100 µM	> 100 µM				
COc1cc(-c2nc3ccc(C4=NCCCN4)cc3s2)ccc1OCc1c[nH]nn1 [40c]		> 100 µM	> 100 µM	> 100 µM	> 100 µM	> 100 µM				
c1cc(-c2nc3ccc(C4=NCCN4)cc3[nH]2)ccc1OCCN1CCOCC1 [48a]		> 100 µM	> 100 µM	> 100 µM	> 100 µM	> 100 µM				
Fc1cc(-c2nc3ccc(C4=NCCCN4)cc3s2)ccc1OCc1c[nH]nn1 [40b]		37.3 ± 12.8 µM	> 100 µM	> 100 µM	> 100 µM	> 100 µM	2.68	2.68		
O=c1[nH]cc(F)c(=O)[nH]1 [5-FU, 5-Fluorouracil, reference compound]		> 100 µM	55 ± 8.7 µM	74 ± 3.1 µM		8.2 ± 1.9 µM			did not exhibit antiproliferative effect	
COc1cc(-c2nc3ccc(C4=NCCCN4)cc3s2)ccc1OCc1cn(Cc2ccccc2)nn1 [41c]		> 100 µM	> 100 µM	> 100 µM	> 100 µM	> 100 µM				
c1ccc(Cn2cc(COc3ccc(-c4nc5ccc(C6=NCCCN6)cc5s4)cc3)nn2)cc1 [41a]		4.1 ± 3.6 µM	58.2 ± 17.3 µM	27.3 ± 6 µM	29.2 ± 4.2 µM	25.8 ± 0.8 µM	6.65	14.19		1.99
Clc1ccc2nc(-c3ccc(OCc4ccccn4)cc3)sc2c1 [18a]		13.2 ± 1.2 µM	17.6 ± 5.7 µM	> 100 µM	> 100 µM	42.4 ± 7.5 µM	3.2			
CCN(CC)CCOc1ccc(-c2nc3ccc(C4=NCCN4)cc3[nH]2)cc1 [49a]		> 100 µM	> 100 µM	80.4 ± 9.9 µM	> 100 µM	> 100 µM				
COc1cc(-c2nc3ccc(C4=NCCN4)cc3[nH]2)ccc1OCc1c[nH]nn1 [44c]		> 100 µM	> 100 µM	> 100 µM	> 100 µM	> 100 µM				
O=C(COc1ccc(-c2nc3ccc(C4=NCCN4)cc3[nH]2)cc1)N1CCOCC1 [47a]		> 100 µM	> 100 µM	> 100 µM	> 100 µM	> 100 µM				
O=C(COc1ccc(-c2nc3ccc(C4=NCCCN4)cc3s2)cc1)c1ccccc1 [38a]		16.2 ± 5.5 µM	27.1 ± 3.4 µM	22.6 ± 4.6 µM	25.4 ± 3.5 µM	19.7 ± 3.1 µM	1.39	1.67		
CCN(CC)CCOc1ccc(-c2nc3ccc(C4=NCCN4)cc3[nH]2)cc1F [49b]		> 100 µM	82.9 ± 6.6 µM	64.8 ± 9.2 µM	> 100 µM	> 100 µM				
c1cc(-c2nc3ccc(C4=NCCN4)cc3[nH]2)ccc1OCc1cn(CCN2CCOCC2)nn1 [46a]		63 ± 15.1 µM	> 100 µM	> 100 µM	> 100 µM	> 100 µM	1.59	1.59		
c1cc(-c2nc3ccc(C4=NCCN4)cc3[nH]2)ccc1OCc1c[nH]nn1 [44a]		89.2 ± 20.6 µM	> 100 µM	73.3 ± 3.2 µM	> 100 µM	> 100 µM		1.2		
Fc1cc(-c2nc3ccc(C4=NCCN4)cc3[nH]2)ccc1OCc1c[nH]nn1 [44b]		65.6 ± 17.3 µM	> 100 µM	45.1 ± 20.9 µM	> 100 µM	> 100 µM		1.52		
O=C(COc1ccc(-c2nc3ccc(C4=NCCN4)cc3[nH]2)cc1F)N1CCOCC1 [47b]		> 100 µM	> 100 µM	> 100 µM	> 100 µM	> 100 µM				
COc1cc(-c2nc3ccc(C4=NCCN4)cc3[nH]2)ccc1OCc1ccccn1 [43c]		17.7 ± 6.1 µM	63.4 ± 8.9 µM	30.9 ± 8.7 µM	> 100 µM	> 100 µM	1.75	3.58		
c1cc(-c2nc3ccc(C4=NCCCN4)cc3s2)ccc1OCc1c[nH]nn1 [40a]		> 100 µM	59.4 ± 18.8 µM	> 100 µM	> 100 µM	> 100 µM				
Fc1cc(-c2nc3ccc(C4=NCCN4)cc3[nH]2)ccc1OCc1ccccn1 [43b]		43.3 ± 4.4 µM	> 100 µM	> 100 µM	> 100 µM	> 100 µM	2.3	2.3		
COc1cc(-c2nc3ccc(C4=NCCN4)cc3[nH]2)ccc1OCCN1CCOCC1 [48c]		69.6 ± 25.9 µM	> 100 µM	> 100 µM	> 100 µM	> 100 µM	1.44	1.44		
CCN(CC)CCOc1ccc(-c2nc3ccc(C4=NCCN4)cc3[nH]2)cc1OC [49c]		> 100 µM	> 100 µM	> 100 µM	> 100 µM	> 100 µM				
